SMILES strings stand for the structures.

The first assay deals with HBsAg in HepG2.2.15 cells. The experiment in a line: HBsAg assay: inhibition of HBsAg in HepG2.2.15 cells (chemiluminescence immunoassay of supernatant). The assay is classed as cell-based, hepatitis B virus. Particulars: Hepatitis B virus, HepG2.2.15, 144 h, read-out: sAg EC50, HepG2.2.15 cells, supernatant collected at day 6 after exposure, HBsAg CLIA. As to the method: Inhibition of HBsAg was determined in HepG2.2.15 cells. Cells were maintained in culture medium containing 10% fetal calf serum, […], Glutamine, penicillin/streptomycin. Cells were seeded in 96-well collagen-coated plate at a density of 30,000 cells/well. Serially diluted compounds were added to cells next day at the final DMSO concentration of 0.5%. Cells were incubated with compounds for 2-3 days, after which medium was removed. Fresh medium containing compounds was added to cells for additional 3-4 days. At day 6 after exposure of compounds, supernatant was collected, the HBsAg immunoassay (microplate-based chemiluminescence immunoassay kits, CLIA, Autobio Diagnosics Co., Zhengzhou, China, Catalog #CL0310-2) was used to determine the level of HBsAg according to manufactory instruction. Dose-response curves were generated and the EC50 value (effective concentrations that achieved 50% inhibitory effect) were determined using XLfit software. In addition, cells were seeded at a density of 5,000 cells/well for determination of cell viability in the presence and absence of compounds by using CellTiter-Glo reagent (Promega).
Take `CCC1c2cc(OC)c(F)cc2CN1c1ccnc(-c2ncccn2)n1` (single isomer, unassigned) [Example 77, 2-([2,2′-Bipyrimidin]-4-yl)-1-ethyl-5-fluoro-6-methoxyisoindoline]: the concentration for a half-maximal effect (EC50) was 0.11 µM.
As to `CCC1c2cc(F)c(OC)cc2CN1c1cnc(C(=O)NS(C)(=O)=O)nc1` (single isomer, unassigned) [Example 102, 5-(1-Ethyl-6-fluoro-5-methoxyisoindolin-2-yl)-N-(methylsulfonyl)pyrimidine-2-carboxamide], the EC50 worked out at 0.62 µM.

Still in this assay, the particulars now being: read-out: sAg EC50; HepG2.2.15 cells, supernatant collected at day 6 after exposure, HBsAg CLIA.
For the molecule `CCC1c2cc(OC)c(F)cc2CN1c1ccnc(-c2ncccn2)n1` (single isomer, unassigned) [Example 78, 2-([2,2′-Bipyrimidin]-4-yl)-1-ethyl-5-fluoro-6-methoxyisoindoline], the 50% effective concentration (EC50) was determined as 0.098 µM.
Same read-out and setting: next, `CCC1c2cc(F)c(OC)cc2CN1c1cnc(-c2ncccn2)nc1` (single isomer, unassigned) [Example 89, 2-([2,2′-Bipyrimidin]-5-yl)-1-ethyl-6-fluoro-5-methoxyisoindoline]: 0.008 µM; `CCC1c2cc(F)c(OC)cc2CN1c1cnc(-c2ncccn2)nc1` (single isomer, unassigned) [Example 90, 2-([2,2′-Bipyrimidin]-5-yl)-1-ethyl-6-fluoro-5-methoxyisoindoline]: 0.26 µM.
Still for that read-out and setting: next, `CCC1c2cc(F)c(OC)cc2CN1c1cnc(C(=O)O)nc1` (single isomer, unassigned) [Example 99, 5-(1-Ethyl-6-fluoro-5-methoxyisoindolin-2-yl)pyrimidine-2-carboxylic Acid]: 7 µM; `CCC1c2cc(F)c(OC)cc2CN1c1cnc(C(=O)O)nc1` (single isomer, unassigned) [Example 100, 5-(1-Ethyl-6-fluoro-5-methoxyisoindolin-2-yl)pyrimidine-2-carboxylic Acid]: 0.2 µM; `CCC1c2cc(F)c(OC)cc2CN1c1cnc(C(=O)NS(C)(=O)=O)nc1` (single isomer, unassigned) [Example 103, 5-(1-Ethyl-6-fluoro-5-methoxyisoindolin-2-yl)-N-(methylsulfonyl)pyrimidine-2-carboxamide]: 0.6 µM.
The same measure, in the same setting: next, `CCC1c2cc(F)c(OC)cc2CN1c1cnc(C(=O)Nc2ccccn2)nc1` (single isomer, unassigned) [Example 107, 5-(1-Ethyl-6-fluoro-5-methoxyisoindolin-2-yl)-N-(pyridin-2-yl)pyrimidine-2-carboxamide]: 49 µM; `CCC1c2cc(F)c(OC)cc2CN1c1cnc(C(=O)Nc2ccccn2)nc1` (single isomer, unassigned) [Example 108, 5-(1-Ethyl-6-fluoro-5-methoxyisoindolin-2-yl)-N-(pyridin-2-yl)pyrimidine-2-carboxamide]: 0.56 µM; `CCC1c2cc(F)c(OC)cc2CN1c1ccnc(C(=O)NC)n1` (single isomer, unassigned) [Example 109, 4-(1-Ethyl-6-fluoro-5-methoxyisoindolin-2-yl)-N-methylpyrimidine-2-carboxamide]: 42 µM.
With `CCC1c2cc(F)c(OC)cc2CN1c1ccnc(C(=O)NC)n1` (single isomer, unassigned) [Example 110, 4-(1-Ethyl-6-fluoro-5-methoxyisoindolin-2-yl)-N-methylpyrimidine-2-carboxamide], the EC50 was determined as 3 µM.
Same read-out and setting: next, `CCC1c2cc(F)c(OC)cc2CCN1c1cnc(C(=O)O)nc1` (single isomer, unassigned) [Example 114, 5-(1-Ethyl-7-fluoro-6-methoxy-3,4-dihydro-1H-isoquinolin-2-yl)pyrimidine-2-carboxylic Acid]: 0.057 µM; `CCC1c2cc(F)c(OC)cc2CCN1c1cnc(C(=O)O)nc1` (single isomer, unassigned) [Example 115, 5-(1-Ethyl-7-fluoro-6-methoxy-3,4-dihydro-1H-isoquinolin-2-yl)pyrimidine-2-carboxylic Acid]: 6 µM.

For orientation: EC50 means the midpoint of the concentration-response curve.
